One compound from patent publication US10576082B2, “ErbB2 regulates autophagic flux to modulate the proteostasis of APP-CTFs in alzheimer's disease” (Academia Sinica, priority 2016, dated 2020) can be followed below.

For data set [1], the system named is γ-secretase-mediated proteolysis of C99 (CG cells). As to the kind of experiment: Cell-based C99-specific γ-secretase assay (CG cells, Gal4 luciferase reporter). Conditions: 1 μM inhibitor, 1 μg/ml tetracycline, 37° C., 24 h. The procedure:
(A) Adherent CG and NG cells (20,000 cells/well) were treated with 1 μM of the indicated ErbB1/2-selective tyrosine kinase inhibitors in the presence of 1 μg/ml tetracycline at 37° C. for 24 h. The luminescence signals emitted by cells treated with vehicle alone (Ctrl, 0.1% DMSO) were referred to as 100% relative luminescence signals. The luminescence signals generated by γ-secretase-mediated proteolysis of C99 (CG) or NΔE (NG) were determined using the Steady-Glo luciferase assay reagent. (B) HEK293 overexpressing C99-YFP cells were treated with 1 μM of the indicated ErbB1/2 tyrosine kinase inhibitors at 37° C. for 24 h. Clarified lysates were analyzed by Western blotting and quantified by Image J. (C) HEK293 overexpressing ErbB1 ErbB2, CFP-tagged C99, and YFP-tagged NΔE cells were infected with gene-targeting shRNA-encoding lentivirus (shErbB1 or shErbB2) at 37° C. for 48 h. Clarified lysates containing equivalent amounts of proteins were examined by Western blotting and quantified by Image J. (D) CG and NG cells were infected with gene-targeting shRNA-encoding lentivirus at 37° C. for 48 h. Following induction with 1 μg/ml tetracycline for 24 h. […] Data are shown as the mean±SD from three independent experiments, and were analyzed by Student's t-tests. * p<0.05. […]

Data set [2] deals with zebrafish embryos expressing GFP-tagged C99. As to the kind of experiment: Phenotype of C99-expressing zebrafish embryos (curved trunk, Notch-dependent somite development). Type of data set: in vivo. The conditions noted are these: treated from 48 hpf to 72 hpf, scored at 72 hpf, n=90.
The subject of data set [3] is HEK293 cells overexpressing C99-YFP. As to the kind of experiment: Secreted Aβ40 ELISA, conditional media of HEK293 cells overexpressing C99-YFP. Type of data set: cell-based. Conditions: 1 μM, 37° C., 24 h. The procedure:
Clarified lysates containing equivalent amounts of proteins were analyzed by Western blotting. (B, C) HEK293 overexpressing CFP-LC3 cells were infected with lentivirus encoding shRNA targeting LacZ ErbB2, or ErbB2 plus ATG5 for 48 h. The autophagy induction was analyzed by fluorescence confocal microscopy. The number of CFP-LC3 puncta per cell was quantified. The levels of LC3-I, LC3-II, and GAPDH were analyzed by Western blotting. (D, E) HEK293 cells overexpressing ErbB1, ErbB2, CFP-tagged C99, and YFP-tagged NΔE were infected with lentivirus encoding shRNA targeting LacZ (Ctrl), ErbB1, or ErbB2 for 48 h. […] The levels of LC3-1, LC3-II, and p62 were analyzed by Western blotting and quantified by NIH Image J. Conditional media were harvested and processed for determination of secreted Aβ40 using a colourimetric Aβ40-specific ELISA kit. […] The quantitative data are shown as mean±SD from three independent experiments, and were analyzed by Student's t-tests. * p<0.05.
Cell-based γ-secretase assays for the nuclear function of AICD or NICD. […] Cellular luminescence was determined by the addition of Steady-Glo Luciferase Assay reagents (PROMEGA™), according to the manufacturer's instructions. […] The level of secreted Aβ40 was quantified using a human Aβ40 sandwich ELISA kit (Invitrogen) according to the manufacturer's instructions.

Take `CC#CC(=O)Nc1ccc2ncnc(Nc3cccc(Br)c3)c2c1` [CL-387,785, N-[4-[(3-bromophenyl)amino]-6-quinazolinyl]-2-butynamide]: the “processing of C99 (luminescence signal in CG cells)” value in data set [1] was “effectively blocked the processing of C99”. Also, the “embryo phenotype (trunk, tail, pigmentation; developmental defects)” value in data set [2] was “all but one CL-387,785-treated embryos exhibited wild-type trunks and tails with normal pigmentation”. For the same compound, in data set [3], the “secreted Aβ40 production” value is “effectively decreased”.
